Reference: the NIST ThermoML archive (doi:10.1016/j.jct.2011.08.008)

Experiment: xn = mol fraction of the nth substance listed
Details: 101 kPa, Liquid, Vibrating tube method

CCCCn1cc[n+](C)c1.[Cl-] [1-butyl-3-methylimidazolium chloride] + OCCO
mass density [kg/m3]
Details | 298.15 K | 308.15 K | 318.15 K
x1 = 0.0132 | 1108.21 | 1101.08 | 1093.97
x1 = 0.0294 | 1106.1 | 1099.21 | 1092.21
x1 = 0.0484 | 1104.02 | 1097.19 | 1090.29
x1 = 0.1028 | 1098.95 | 1092.29 | 1085.61
x1 = 0.2101 | 1092.39 | 1085.44 | 1079.22
x1 = 0.3094 | 1088.58 | 1081.93 | 1075.58
x1 = 0.4202 | 1085.81 | 1079.23 | 1072.98
x1 = 0.4947 | 1084.46 | 1078.12 | 1072
x1 = 0.5992 | 1083.24 | 1077.18 | 1071.11
x1 = 0.7117 | 1082.47 | 1076.69 | 1070.76
x1 = 0.8143 | 1082.35 | 1076.51 | 1070.75
x1 = 0.9126 | 1082.27 | 1076.49 | 1070.88
x1 = 1 | 1082.01 | 1076.51 | 1071.04

CCCCn1cc[n+](C)c1.COS(=O)(=O)[O-] [1-butyl-3-methylimidazolium methyl sulfate] + OCCO
mass density [kg/m3]
Details | 298.15 K | 308.15 K | 318.15 K
x1 = 0.0052 | 1110.66 | 1103.5 | 1096.12
x1 = 0.0512 | 1119.06 | 1111.91 | 1104.2
x1 = 0.1106 | 1128.96 | 1121.84 | 1114.04
x1 = 0.2135 | 1145.36 | 1138.27 | 1130.75
x1 = 0.3018 | 1156.55 | 1149.5 | 1142.35
x1 = 0.4059 | 1167.63 | 1160.69 | 1153.59
x1 = 0.5066 | 1176.9 | 1170.01 | 1162.97
x1 = 0.6163 | 1185.67 | 1178.75 | 1171.77
x1 = 0.7 | 1191.66 | 1184.71 | 1177.89
x1 = 0.8408 | 1199.42 | 1192.62 | 1185.85
x1 = 0.9244 | 1202.97 | 1196.25 | 1189.52
x1 = 1 | 1205.84 | 1199.25 | 1192.7

CCCCCCCC[n+]1ccn(C)c1.[Cl-] [1-methyl-3-octylimidazolium chloride] + OCCO
mass density [kg/m3]
Details | 298.15 K | 308.15 K | 318.15 K
x1 = 0.0077 | 1106.07 | 1098.89 | 1091.83
x1 = 0.0589 | 1085.93 | 1078.94 | 1072.21
x1 = 0.119 | 1068.7 | 1061.98 | 1055.33
x1 = 0.2112 | 1050.79 | 1044.34 | 1037.95
x1 = 0.2985 | 1039.53 | 1033.27 | 1026.92
x1 = 0.4021 | 1030.4 | 1024.26 | 1017.91
x1 = 0.5118 | 1023.63 | 1017.52 | 1011.2
x1 = 0.6041 | 1019.49 | 1013.41 | 1007.18
x1 = 0.6999 | 1016.21 | 1010.14 | 1003.94
x1 = 0.7837 | 1013.92 | 1007.87 | 1001.74
x1 = 0.8328 | 1012.75 | 1006.75 | 1000.65
x1 = 0.9583 | 1010.27 | 1004.34 | 998.43
x1 = 1 | 1009.56 | 1003.74 | 997.92
